System: HeLa cell
Assay: Cytotoxicity test (MTT, cell viability)
Type: cell-based
Conditions: HeLa cells, concentrations of 1 nM to 100 nM, cultured for 6 hours, 24 hours, or 48 hours
Description: HeLa cell was seeded on a 96-well plate at 6×10^3 per well and was cultured overnight. Aqueous solutions of the compound 4 at concentrations of 0.1 nM, 1 nM, 10 nM and 100 nM were prepared as test agents, and the test agent at each concentration was added to the well, and HeLa cells were further cultured for 6, 24, and 48 hours. After the culturing for each of the above hours, MTT (3-(4,5-di-methylthiazol-2-yl)-2,5-diphenyltetrazolium bromide) reagent was added to the well, and the resultant product was further cultured for 2 hours.
After the culturing for 2 hours, a solubilizing solution was added to the well, and formazan produced in the living cell was dissolved by pipetting. By sealing the 96-well plate and allowing the resultant product to stand in an incubator overnight at 37° C., formazan was completely solubilized. A plate reader was used to measure 570 nm (formazan dye) and 650 nm (background), and the cell viability of the well to which the test agent of each concentration was added was determined, with the cell viability of a well without the addition of a test agent being 100%.
Culturing of HeLa cells and determination of cell viability of the well were performed as in the cytotoxicity test for the compound 4, except that a test agent was prepared using the compound 10 instead of the compound 4.

Compound: CC1(C)C(/C=C/C=C/C=C/C=C/C=C/C=C2/N(CCCCS(=O)(=O)O)c3ccc4ccccc4c3C2(C)C)=[N+](CCCCS(=O)(=O)[O-])c2ccc3ccccc3c21 [compound 10, ICG-C11]
- cytotoxicity (cell viability): did not exhibit cytotoxicity
